# Measurements taken from patent publication EP0490410B1, “TXA2 Receptor and gene encoding the same” (SHIONOGI SEIYAKU KABUSHIKI KAISHA, priority 1990, dated 1992).
# What was measured:
# [1] = tested on: human TXA2 receptor encoded by HPL (SEQ ID NO: 1), expressed in Xenopus oocytes; test: Electrophysiological response (two-micropipette voltage clamp) of Xenopus oocytes injected with in vitro transcribed mRNA of HPL; type: cell-based; conditions: for response evoked (inward current): ligand added to the bath at 1 µM, oocytes 48 hours after mRNA injection
# Method: The TXA2 receptor stimulation results in PI turnover and Ca^2+ mobilization. The present inventors, therefore, expressed the clone in Xenopus oocyte where agonist stimulation linked to PI turnover opens endogenous Ca^2+-dependent Cl^- channel. […] The mRNA synthesized in vitro from the 2.0 kb BamHI subclone of HPL was injected into Xenopus oocytes and electrophysiological responses were measured after 48 hours. A TXA2 agonist, STA2, and other PGs dissolved in ethanol at 100 µM were added to the bath at 1 µM concentration, and responses of oocytes were recorded by the two-micropipette voltage clamp method as described in Masu, Y. et al., Nature 329, 836-838 (1987).
# [2] = target: T1, human TXA2 receptor encoded by placenta cDNA clone HPL (SEQ ID NO: 1), expressed in COS-7 cells (Homo sapiens, UniProt P21731); test: Competition for [3H]S-145 binding to membranes of transfected COS-7 cells; conditions: 1.25 nM [^3H]S-145 and various concentrations of ligands
# T1 construct: expressed in transfected cells; host or cells: COS-7 cells (CDM8 vector), membranes
# T1 sequence (P21731 1-343): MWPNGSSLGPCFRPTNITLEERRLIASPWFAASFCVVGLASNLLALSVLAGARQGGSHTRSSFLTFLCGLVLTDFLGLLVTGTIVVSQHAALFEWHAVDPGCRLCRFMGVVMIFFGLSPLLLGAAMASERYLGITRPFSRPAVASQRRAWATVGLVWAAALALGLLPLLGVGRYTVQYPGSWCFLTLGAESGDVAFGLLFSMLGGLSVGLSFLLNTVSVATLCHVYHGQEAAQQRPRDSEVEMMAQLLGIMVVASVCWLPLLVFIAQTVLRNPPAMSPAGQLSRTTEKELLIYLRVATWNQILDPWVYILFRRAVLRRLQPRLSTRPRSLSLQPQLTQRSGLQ
# Method: To establish that HPL encodes the TXA2 receptor, the present inventors subcloned a 2.0 kb fragment of HPL into an eukaryotic expression vector, CDM8 (Seed, B., Nature 329, 840-842 (1987)), and transfected the plasmid into COS-7 cells. […] Specificity of this binding was analysed with several TXA2 analogues as well as various prostanoids.
# HPL was digested with BamHI to remove most of the 5'-untranslated region, and its 2.0 kb fragment was inserted between the HindIII-XbaI site of eukaryotic expression vector CDM8 (Seed, B., Nature […], 840-842 (1987)). A modified DEAE-dextran method (Ausbel, F. M. et al, Current Protocols in Molecular Biology. 9.2.5 (Wiley, New York, 1989)) was used for the transfection of COS-7 cells. At 60 h after the transfection, cells were collected and membranes were prepared by homogenizing the cells according to the method of Ausbel, F. M. et al., as described above in the presence of 1 mM benzamidine and 0.3 mM PMSF.
response evoked (inward current) [1],competition for the [^3H]S-145 binding [2],Molecule,concentration as low as which the response was seen ([1]; oocytes injected with mRNA of HPL)
did not evoke response,,CCCCC[C@H](O)/C=C/[C@@H]1[C@@H](C/C=C\CCCC(=O)O)[C@@H](O)C[C@H]1O [PGF2 α],
did not evoke response,,CCCCC[C@H](O)/C=C/[C@H]1[C@H](O)CC(=O)[C@@H]1CCCCCCC(=O)O [PGE1],
,competed for the [^3H]S-145 binding,O=C(O)CCCC=CCC1C2CCC(C2)C1NS(=O)(=O)c1ccccc1 (stereo not drawn) [S-145],
did not evoke response,,CCCCC[C@H](O)/C=C/[C@H]1[C@H](O)CC(=O)[C@@H]1C/C=C\CCCC(=O)O [E2],
did not evoke response,,CCCCCC(O)C=CC1C(O)CC2OC(=CCCCC(=O)O)CC21 (stereo not drawn) [I2],
,competed for the [^3H]S-145 binding,CC1(C)[C@H]2C[C@H](NC(=O)[C@H](O)C3CCCC3)[C@@H](C/C=C\CCCC(=O)O)[C@@H]1C2 [ONO-3708],
did not evoke response,,PGD2,

Molecule,response evoked (inward current) [1],competition for the [^3H]S-145 binding [2],concentration as low as which the response was seen ([1]; oocytes injected with mRNA of HPL)
CCCCCC(O)C=CC1CC2CC(S2)C1CC=CCCCC(=O)O (stereo not drawn) [STA2],evoked a fast inward current of a few hundred nA followed by a slow phase of current of low amplitude,competed for the [^3H]S-145 binding,1 nM
CCCCC[C@H](O)/C=C/[C@H]1OC(O)C[C@H](O)[C@@H]1C/C=C\CCCC(=O)O (stereo partly drawn) [TXB2],did not evoke response,at least two orders of magnitude less active in the competition,
